The values that follow are results of earlier work, collected in patent publication US5753436A, “Chemiluminescent energy transfer assays” (Tropix, Inc., priority 1995, dated 1998).

Broadly, the Km is the concentration of substrate that gives half-maximal velocity.

This series concerns alkaline phosphatase.

`O=P(O)(O)Oc1ccc2nc(-c3nc4ccccc4s3)sc2c1` [AttoPhos]: the Michaelis constant (Km) was 30 µM. In addition, the turnover number (2.40M DEA (diethanolamine) pH 9.0, 0.23 mM MgCl2, 0.005% NaN by weight) is recorded as 85,400 molecules of AttoPhos per minu.
